Reference: patent US20240218022A1, “ANTI-VISTA MACROCYCLIC PEPTIDES AND COMPOSITIONS” (BRISTOL-MYERS SQUIBB COMPANY, priority 2022, published 2024)
Like-named read-outs stand apart in the source and are kept apart here. Starred links: 1 amine or outer side, 2 acyl side, 3 side chain; linkers in the order of their positions; H or OH if unused. Positions of bridges follow the written chain, without caps; N, C: chain ends. Non-standard residues stand in square brackets, D forms with d. Residues, ends and D or L forms follow the SMILES beside them. γGlu = O=C(O)[C@H](CCC(=O)[*:2])N[*:1]; 2Nal = N[C@@H](Cc1ccc2ccccc2c1)C(=O)O; Tic = O=C(O)[C@@H]1Cc2ccccc2CN1; Cit = NC(=O)NCCC[C@H](N)C(=O)O; NMeL = CN[C@@H](CC(C)C)C(=O)O; Ahp(2) = CCCCC[C@H](N)C(=O)O; NMeNle = CCCC[C@H](NC)C(=O)O; Tle = CC(C)(C)[C@H](N)C(=O)O; NHexGly = CCCCCCNCC(=O)O; Nle = CCCC[C@H](N)C(=O)O; Orn = NCCC[C@H](N)C(=O)O; Aun = NCCCCCCCCCCC(=O)O; AEEA = NCCOCCOCC(=O)O

Biological target: T1, mouse VISTA (mVISTA) (Mus musculus, UniProt Q9D659)
T1 construct: expressed in transfected cells; host or cells: Human embryonic kidney 293T cells
T1 sequence (Q9D659 33-308): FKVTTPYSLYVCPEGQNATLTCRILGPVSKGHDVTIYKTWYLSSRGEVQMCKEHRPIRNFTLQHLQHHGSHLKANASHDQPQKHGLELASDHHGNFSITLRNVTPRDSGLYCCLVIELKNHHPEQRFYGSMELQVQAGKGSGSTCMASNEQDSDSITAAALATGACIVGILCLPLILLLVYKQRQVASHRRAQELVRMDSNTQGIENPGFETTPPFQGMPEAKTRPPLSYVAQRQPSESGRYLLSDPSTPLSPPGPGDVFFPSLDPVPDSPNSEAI
Test: Cell-Based Binding High-Content Assay For mVISTA (HC CBA mVISTA)
Summary of the method: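 mVISTA-293T, 4,000 cells/well; cpd ± washout step; biotin-peptide 2 nM final, 30 min RT; SA-Alexa 647 30 min; formaldehyde/Hoechst fix; HCS imaging; 4PL IC50.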

[1] = cell-based binding high-content assay, read-out: HC CBA miPrISTA IC50

Row | IC50 (read-out: HC CBA mVISTA IC50) | IC50 [1] | Compound
1 | 34.9 nM | – | CCCCCCN1CC(=O)N[C@@H](Cc2ccc(O)cc2)C(=O)N[C@@H](CC(C)C)C(=O)N[C@@H](CC(N)=O)C(=O)N[C@@H](CCCN)C(=O)N(C)[C@@H](CCCC)C(=O)N[C@@H](CCCCC)C(=O)N2CCC[C@H]2C(=O)N[C@@H](C(C)(C)C)C(=O)N[C@@H](C(C)C)C(=O)N[C@H](C(=O)NCCOCCOCC(=O)N[C@@H](CCC(=O)NCCOCCOCC(=O)NCCCCCCCCCCC(=O)O)C(=O)O)CSCC(=O)N[C@@H](Cc2ccccc2)C(=O)N[C@@H](Cc2c[nH]c3ccccc23)C(=O)N[C@@H](CC(=O)O)C1=O [compound 2282] ({CH2CO}-FWD[NHexGly]YLN[Orn][NMeNle][Ahp(2)]P[Tle]VC[AEEA][γGlu][AEEA][Aun]-OH; thioether N-14)
2 | 27.8 nM | – | CCCCCCN1CC(=O)N[C@@H](Cc2ccc(O)cc2)C(=O)N[C@@H](CC(C)C)C(=O)N[C@@H](CC(N)=O)C(=O)N[C@@H](CCCN)C(=O)N(C)[C@@H](CCCC)C(=O)N[C@@H](CCCCC)C(=O)N2CCC[C@H]2C(=O)N[C@@H](C(C)(C)C)C(=O)N[C@@H](CC(=O)O)C(=O)N[C@H](C(=O)NCCOCCOCC(=O)N[C@@H](CCC(=O)NCCOCCOCC(=O)NCCCCCCCCCCC(=O)O)C(=O)O)CSCC(=O)N[C@@H](Cc2ccccc2)C(=O)N[C@@H](Cc2c[nH]c3ccccc23)C(=O)N[C@@H](CC(=O)O)C1=O [compound 2283] ({CH2CO}-FWD[NHexGly]YLN[Orn][NMeNle][Ahp(2)]P[Tle]DC[AEEA][γGlu][AEEA][Aun]-OH; thioether N-14)
3 | – | 15.2 nM | CCCCCCN1CC(=O)N[C@@H](Cc2ccc(O)cc2)C(=O)N[C@@H](CC(C)C)C(=O)N[C@@H](CC(N)=O)C(=O)N[C@@H](CCCNC(=N)N)C(=O)N[C@@H](CC(C)C)C(=O)N[C@@H](CCCCC)C(=O)N2CCC[C@H]2C(=O)N[C@@H](C(C)C)C(=O)N[C@@H](CO)C(=O)N[C@H](C(=O)NCCOCCOCC(=O)N[C@@H](CC(=O)O)C(=O)NCCOCCOCC(=O)NCCCCCCCCCCC(=O)O)CSCC(=O)N[C@@H](Cc2ccccc2)C(=O)N[C@@H](Cc2ccc(O)cc2)C(=O)N[C@@H](CC(=O)O)C1=O [compound 2285] ({CH2CO}-FYD[NHexGly]YLNRL[Ahp(2)]PVSC[AEEA]D[AEEA][Aun]-OH; thioether N-14)
4 | – | 18.2 nM | CCCCCCN1CC(=O)N[C@@H](Cc2ccc(O)cc2)C(=O)N[C@@H](CCCCC)C(=O)NCC(=O)N[C@@H](CCCNC(=N)N)C(=O)N[C@@H](CC(C)C)C(=O)N[C@@H](CCCCC)C(=O)N2CCC[C@H]2C(=O)N[C@@H](C(C)C)C(=O)N[C@@H](CO)C(=O)N[C@H](C(=O)NCCOCCOCC(=O)N[C@@H](CC(=O)O)C(=O)NCCOCCOCC(=O)NCCCCCCCCCCC(=O)O)CSCC(=O)N[C@@H](Cc2ccccc2)C(=O)N[C@@H](Cc2ccc(O)cc2)C(=O)N[C@@H](CC(=O)O)C1=O [compound 2292] ({CH2CO}-FYD[NHexGly]Y[Ahp(2)]GRL[Ahp(2)]PVSC[AEEA]D[AEEA][Aun]-OH; thioether N-14)
5 | – | 25.7 nM | CCCCCCN1CC(=O)N[C@@H](Cc2ccc(O)cc2)C(=O)N[C@@H](CCCC)C(=O)N[C@@H](CC(N)=O)C(=O)N[C@@H](CCCNC(=N)N)C(=O)N(C)[C@@H](CCCC)C(=O)N[C@@H](CCCCC)C(=O)N2CCC[C@H]2C(=O)N[C@@H](C(C)C)C(=O)N[C@@H](CC(=O)O)C(=O)N[C@H](C(=O)NCCOCCOCC(=O)N[C@@H](CC(=O)O)C(=O)NCCOCCOCC(=O)NCCCCCCCCCCC(=O)O)CSCC(=O)N[C@@H](Cc2ccccc2)C(=O)N[C@@H](Cc2c[nH]c3ccccc23)C(=O)N[C@@H](CC(=O)O)C1=O [compound 2293] ({CH2CO}-FWD[NHexGly]Y[Nle]NR[NMeNle][Ahp(2)]PVDC[AEEA]D[AEEA][Aun]-OH; thioether N-14)
6 | – | 21.2 nM | CCCCCCN1CC(=O)N[C@@H](Cc2ccc(O)cc2)C(=O)N[C@@H](CCCCC)C(=O)NCC(=O)N[C@@H](CCCNC(N)=O)C(=O)N[C@@H](CC(C)C)C(=O)N[C@@H](CCCCC)C(=O)N2CCC[C@H]2C(=O)N[C@@H](C(C)C)C(=O)N[C@@H](CO)C(=O)N[C@H](C(=O)NCCOCCOCC(=O)N[C@@H](CC(=O)O)C(=O)NCCOCCOCC(=O)NCCCCCCCCCCC(=O)O)CSCC(=O)N[C@@H](Cc2ccccc2)C(=O)N[C@@H](Cc2ccc(O)cc2)C(=O)N[C@@H](CC(=O)O)C1=O [compound 2307] ({CH2CO}-FYD[NHexGly]Y[Ahp(2)]G[Cit]L[Ahp(2)]PVSC[AEEA]D[AEEA][Aun]-OH; thioether N-14)
7 | – | 14.6 nM | CCCCCCN1CC(=O)N[C@@H](Cc2ccc(O)cc2)C(=O)N[C@@H](C(C)C)C(=O)NCC(=O)N[C@@H](CCCNC(N)=O)C(=O)N[C@@H](CC(C)C)C(=O)N[C@@H](CCCCC)C(=O)N2CCC[C@H]2C(=O)N[C@@H](C(C)C)C(=O)N[C@@H](CC(=O)O)C(=O)N[C@H](C(=O)NCCOCCOCC(=O)N[C@@H](CC(=O)O)C(=O)NCCOCCOCC(=O)NCCCCCCCCCCC(=O)O)CSCC(=O)N[C@@H](Cc2ccc3ccccc3c2)C(=O)N[C@@H](Cc2ccc(O)cc2)C(=O)N[C@@H](CC(=O)O)C1=O [compound 2308] ({CH2CO}-[2Nal]YD[NHexGly]YVG[Cit]L[Ahp(2)]PVDC[AEEA]D[AEEA][Aun]-OH; thioether N-14)
8 | – | 28.1 nM | CCCCCCN1CC(=O)N[C@@H](Cc2ccc(O)cc2)C(=O)N[C@@H](CCCC)C(=O)N[C@@H](CC(N)=O)C(=O)N[C@@H](CCCNC(=N)N)C(=O)N(C)[C@@H](CC(C)C)C(=O)N[C@@H](CCCCC)C(=O)N2CCC[C@H]2C(=O)N[C@@H](C(C)C)C(=O)N[C@@H](CO)C(=O)N[C@H](C(=O)NCCOCCOCC(=O)N[C@@H](CC(=O)O)C(=O)NCCOCCOCC(=O)NCCCCCCCCCCC(=O)O)CSCC(=O)N[C@@H](Cc2ccc3ccccc3c2)C(=O)N[C@@H](Cc2ccc(O)cc2)C(=O)N[C@@H](CC(=O)O)C1=O [compound 2313] ({CH2CO}-[2Nal]YD[NHexGly]Y[Nle]NR[NMeL][Ahp(2)]PVSC[AEEA]D[AEEA][Aun]-OH; thioether N-14)
9 | – | 18.3 nM | CCCCCCN1CC(=O)N[C@@H](Cc2ccc(O)cc2)C(=O)N[C@@H](CCCC)C(=O)N[C@@H](CC(N)=O)C(=O)N[C@@H](CCCNC(N)=O)C(=O)N2Cc3ccccc3C[C@H]2C(=O)N[C@@H](CCCCC)C(=O)N2CCC[C@H]2C(=O)N[C@@H](C(C)C)C(=O)N[C@@H](CO)C(=O)N[C@H](C(=O)NCCOCCOCC(=O)N[C@@H](CC(=O)O)C(=O)NCCOCCOCC(=O)NCCCCCCCCCCC(=O)O)CSCC(=O)N[C@@H](Cc2ccc3ccccc3c2)C(=O)N[C@@H](Cc2ccc(O)cc2)C(=O)N[C@@H](CC(=O)O)C1=O [compound 2315] ({CH2CO}-[2Nal]YD[NHexGly]Y[Nle]N[Cit][Tic][Ahp(2)]PVSC[AEEA]D[AEEA][Aun]-OH; thioether N-14)
10 | – | 25.1 nM | CCCCCCN1CC(=O)N[C@@H](Cc2ccc(O)cc2)C(=O)N[C@@H](CCCC)C(=O)N[C@@H](CC(N)=O)C(=O)N[C@@H](CCCNC(N)=O)C(=O)N(C)[C@@H](CCCC)C(=O)N[C@@H](CCCCC)C(=O)N2CCC[C@H]2C(=O)N[C@@H](C(C)C)C(=O)N[C@@H](CO)C(=O)N[C@H](C(=O)NCCOCCOCC(=O)N[C@@H](CC(=O)O)C(=O)NCCOCCOCC(=O)NCCCCCCCCCCC(=O)O)CSCC(=O)N[C@@H](Cc2ccc3ccccc3c2)C(=O)N[C@@H](Cc2ccc(O)cc2)C(=O)N[C@@H](CC(=O)O)C1=O [compound 2319] ({CH2CO}-[2Nal]YD[NHexGly]Y[Nle]N[Cit][NMeNle][Ahp(2)]PVSC[AEEA]D[AEEA][Aun]-OH; thioether N-14)
